Laboratory results as given in US8962637B2, “Bicyclic compounds and their uses as dual c-SRC/JAK inhibitors” (Debiopharm S.A., priority 2010, dated 2015).

Tests used:
[1] = target: JAK2 (Homo sapiens (Human), UniProt O60674); assay: TR-FRET JAK2 kinase assay; type: biochemical; details: ATP 10 μM; for inhibition at 0.1 µM: read-out: JAK2 % inhibition at 100 nM, 100 nM; for inhibition at 1 µM: read-out: JAK2 % inhibition at 1 μM
Method: (§1) Compounds were screened in the TR-FRET assay for JAK2 and c-Src kinase inhibition. Ultra light poly GT (Perkin Elmer) was used as the substrate for JAK2 and c-Src with the ATP concentration of 10 μM and 50 μM, respectively. […] The dose-response curve fitting was done using GraphPad Prism software.

[2] = target: c-Src (Homo sapiens (Human), UniProt P12931); assay: TR-FRET c-Src kinase assay; type: biochemical; details: ATP 50 μM; for inhibition at 0.1 µM: read-out: c-SRC % inhibition at 100 nM, 100 nM; for inhibition at 1 µM: read-out: c-SRC % inhibition at 1 μM
Method: as §1

[3] = tested on: Mda-Mb-231 cells; assay: Cell viability assay (XTT assay), Mda-Mb-231; type: cell-based; details: Homo sapiens, 72 hrs
Method: Mda-Mb-231 or A549 cells were seeded onto a 96-well micro plate. Next day compounds were added to cells and incubated for 72 hrs. Compound treatment was done in triplicates. After 72 hrs cell culture media was aspirated from the wells and XTT working solution was added and plates were incubated for 2-5 hrs. The absorbance of the samples was measured with a spectrophotometer at a wavelength of 465 nm. EC50 values were calculated using Graphpad Prism. Tumor cell lines used in the examples of the present invention were procured from ATCC. Description of the cell lines is included in the following table: […]

[4] = tested on: pStat3; assay: In-Cell-Western blot assay for pStat3 (ICW) in A431 cells; type: cell-based; details: Homo sapiens, A-431, 2 hrs, read-out: pSTAT3 inhibition
Method: A431 cells were seeded onto a 96-well micro plate. After overnight serum starvation cells were incubated with compounds for 2 hrs. Cells were fixed with 4% paraformaldehyde in PBS and then permeabilized with 0.1% Triton X-100 in PBS (PBST). Cells were blocked with 5% BSA in PBST for 2 hrs, followed by overnight incubation with phospho Stat3 antibody. Cells were washed and incubated with europium-labeled anti-rabbit secondary antibody for 2 hrs. After washing enhancement solution was added to the wells. The micro-plate was read on the Victor instrument at the Europium setting. The Hoechst readings were used to normalize for cell number. IC50 values were calculated with the normalized europium values using Graphpad Prism.

JAK2, sequence (O60674 whole entry): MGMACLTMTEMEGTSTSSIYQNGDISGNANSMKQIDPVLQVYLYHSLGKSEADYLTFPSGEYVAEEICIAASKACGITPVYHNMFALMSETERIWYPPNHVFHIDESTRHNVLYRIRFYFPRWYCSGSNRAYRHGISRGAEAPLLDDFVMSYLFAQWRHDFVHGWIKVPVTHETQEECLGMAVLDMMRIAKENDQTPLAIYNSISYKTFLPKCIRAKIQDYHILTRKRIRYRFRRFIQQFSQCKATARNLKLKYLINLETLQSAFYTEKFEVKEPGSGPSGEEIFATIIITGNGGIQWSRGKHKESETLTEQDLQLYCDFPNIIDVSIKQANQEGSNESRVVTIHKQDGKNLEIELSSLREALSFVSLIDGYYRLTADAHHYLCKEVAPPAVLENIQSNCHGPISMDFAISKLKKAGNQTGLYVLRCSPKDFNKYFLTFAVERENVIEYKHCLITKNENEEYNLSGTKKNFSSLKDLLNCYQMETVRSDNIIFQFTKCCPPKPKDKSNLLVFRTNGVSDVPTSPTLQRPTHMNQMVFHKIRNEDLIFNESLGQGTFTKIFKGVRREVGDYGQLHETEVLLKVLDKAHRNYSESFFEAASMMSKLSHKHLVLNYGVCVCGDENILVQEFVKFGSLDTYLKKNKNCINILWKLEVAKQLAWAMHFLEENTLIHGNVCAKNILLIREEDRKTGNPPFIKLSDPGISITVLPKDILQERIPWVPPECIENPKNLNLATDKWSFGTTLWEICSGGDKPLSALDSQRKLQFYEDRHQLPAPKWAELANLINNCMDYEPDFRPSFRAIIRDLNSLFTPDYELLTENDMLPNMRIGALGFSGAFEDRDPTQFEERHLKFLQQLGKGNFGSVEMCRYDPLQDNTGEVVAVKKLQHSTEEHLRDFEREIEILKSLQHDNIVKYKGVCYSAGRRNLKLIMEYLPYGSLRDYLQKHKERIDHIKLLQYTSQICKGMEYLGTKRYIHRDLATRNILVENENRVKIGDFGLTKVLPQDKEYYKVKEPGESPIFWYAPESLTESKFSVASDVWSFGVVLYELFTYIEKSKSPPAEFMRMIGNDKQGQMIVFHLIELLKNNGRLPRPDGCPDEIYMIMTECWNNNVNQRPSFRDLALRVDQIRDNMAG
c-Src, sequence (P12931 whole entry, looked up): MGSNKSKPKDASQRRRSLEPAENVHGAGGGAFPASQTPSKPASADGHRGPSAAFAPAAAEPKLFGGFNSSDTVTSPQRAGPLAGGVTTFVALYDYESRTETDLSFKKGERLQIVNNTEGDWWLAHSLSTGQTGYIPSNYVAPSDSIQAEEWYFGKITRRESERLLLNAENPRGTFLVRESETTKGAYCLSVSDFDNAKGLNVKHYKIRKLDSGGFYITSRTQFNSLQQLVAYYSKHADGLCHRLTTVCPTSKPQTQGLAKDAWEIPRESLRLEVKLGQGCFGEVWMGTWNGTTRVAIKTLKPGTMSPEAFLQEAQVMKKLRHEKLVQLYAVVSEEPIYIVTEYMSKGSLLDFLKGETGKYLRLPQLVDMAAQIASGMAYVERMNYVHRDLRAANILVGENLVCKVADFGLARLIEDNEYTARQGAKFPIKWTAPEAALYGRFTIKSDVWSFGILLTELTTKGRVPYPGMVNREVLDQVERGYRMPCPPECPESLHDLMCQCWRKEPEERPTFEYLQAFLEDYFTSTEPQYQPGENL

Row | SMILES | IC50 [1] | IC50 [2] | EC50 [3] | inhibition at 0.1 µM [1] | inhibition at 1 µM ([1]; 1 μM) | inhibition at 0.1 µM [2] | inhibition at 1 µM [2] | IC50 [4] | JAK2 % inhibition at 1 μM ([1]; 1 μM)
1 | Cc1ccc(NC(=O)c2cccc(Br)c2)cc1N1CCc2nc(Nc3ccc(N4CCN(C)CC4)cc3)ncc2C1=O [Compound 58, 3-Bromo-N-(4-methyl-3-{2-[4-(4-methyl-piperazin-1-yl)-phenylamino]-5-oxo-7,8-dihydro-5H-pyrido[4,3-d]pyrimidin-6-yl}-phenyl)-benzamide] | 44 nM | 19 nM | 3820 nM |  |  |  |  |  | 
2 | Cc1ccc(NC(=O)c2cc(Cl)cc(C(F)(F)F)c2)cc1N1CCc2nc(Nc3ccc(N4CCN(C)CC4)cc3)ncc2C1=O [Compound 120, 3-Chloro-N-(4-methyl-3-{2-[4-(4-methyl-piperazin-1-yl)-phenylamino]-5-oxo-7,8-dihydro-5H-pyrido[4,3-d]pyrimidin-6-yl}-phenyl)-5-trifluoromethyl-benzamide] | 36 nM |  | 2500 nM |  |  | 94% | 95% |  | 
3 | Cc1ccc(NC(=O)c2cccc(C(F)(F)F)c2)cc1N1CCc2nc(Nc3ccc(C(=O)NC4CCN(C)CC4)nc3)ncc2C1 [Compound 148, 5-{6-[2-Methyl-5-(3-trifluoromethyl-benzoylamino)-phenyl]-5,6,7,8-tetrahydro-pyrido[4,3-d]pyrimidin-2-ylamino}-pyridine-2-carboxylic acid (1-methyl-piperidin-4-yl)-amide] |  | 2.4 nM | 34 nM |  |  | 99% | 99% | 270 nM | 
4 | Cc1ccc(NC(=O)CCC(F)(F)F)cc1N1CCc2nc(Nc3ccc(C(=O)N4CCN(C)CC4)cc3)ncc2C1 [Compound 164, 4,4,4-Trifluoro-N-(4-methyl-3-{2-[4-(4-methyl-piperazine-1-carbonyl)-phenylamino]-7,8-dihydro-5H-pyrido[4,3-d]pyrimidin-6-yl}-phenyl)-butyramide] | 46 nM | 26 nM |  | 68% | 91% | 70% | 79% |  | 
5 | Cc1ccc(NC(=O)c2cc(C(F)(F)F)ccn2)cc1N1CCc2nc(Nc3ccc(N4CCN(C)CC4)cc3)ncc2C1=O [Compound 166, 4-Trifluoromethyl-pyridine-2-carboxylic acid (4-methyl-3-{2-[4-(4-methyl-piperazin-1-yl)-phenylamino]-5-oxo-7,8-dihydro-5H-pyrido[4,3-d]pyrimidin-6-yl}-phenyl)-amide] | 48 nM | 27 nM |  | 74% | 93% | 60% | 87% |  | 
6 | Cc1ccc(NC(=O)c2cc(C(F)(F)F)ccn2)cc1N1CCc2nc(Nc3ccc(C(=O)N4CCN(C)CC4)cc3)ncc2C1=O [Compound 170, 4-Trifluoromethyl-pyridine-2-carboxylic acid (4-methyl-3-{2-[4-(4-methyl-piperazine-1-carbonyl)-phenylamino]-5-oxo-7,8-dihydro-5H-pyrido[4,3-d]pyrimidin-6-yl}-phenyl)-amide] | 70 nM |  |  | 64% | 93% | 26% | 58% |  | 
7 | CN1CCN(c2ccc(Nc3ncc4c(n3)CCN(c3cc(NC(=O)c5cc(F)cc(C(F)(F)F)c5)ccc3Cl)C4=O)cc2)CC1 [Compound 172, N-(4-Chloro-3-{2-[4-(4-methyl-piperazin-1-yl)-phenylamino]-5-oxo-7,8-dihydro-5H-pyrido[4,3-d]pyrimidin-6-yl]-phenyl)-3-fluoro-5-trifluoromethyl-benzamide] |  |  | 1840 nM | 94% | 97% | 66% | 72% |  | 
8 | CN1CCN(c2ccc(Nc3ncc4c(n3)CCN(c3cc(NC(=O)c5cccc(C(F)(F)F)c5)ccc3Cl)C4)cc2)CC1 [Compound 174, N-(4-Chloro-3-{2-[4-(4-methyl-piperazin-1-yl)-phenylamino]-7,8-dihydro-5H-pyrido[4,3-d]pyrimidin-6-yl}-phenyl)-3-trifluoromethyl-benzamide] |  |  |  | 94% | 97% | 95% | 98% | 161 nM | 
9 | CNC(=O)c1ccc(Nc2ncc3c(n2)CCN(c2cc(NC(=O)c4cc(F)cc(C(F)(F)F)c4)ccc2Cl)C3)cc1 [Compound 177, N-{4-Chloro-3-[2-(4-methylcarbamoyl-phenylamino)-7,8-dihydro-5H-pyrido[4,3-d]pyrimidin-6-yl]-phenyl}-3-fluoro-5-trifluoromethyl-benzamide] |  | 20 nM | 120 nM |  |  | 86% | 96% | 290 nM | 
10 | Cc1nc(Nc2ncc(C(=O)Nc3c(C)cccc3Cl)s2)cc(N2CCN(CCO)CC2)n1 [Dasatinib, reference compound] |  |  | 44 nM |  |  |  |  |  | 55%

Continued by falling IC50 [1], values first:

Row | IC50 [1] | IC50 [2] | EC50 [3] | inhibition at 0.1 µM [1] | inhibition at 1 µM ([1]; 1 μM) | inhibition at 0.1 µM [2] | inhibition at 1 µM [2] | IC50 [4] | SMILES | JAK2 % inhibition at 1 μM ([1]; 1 μM)
11 | 15 nM | 66 nM |  |  |  |  |  |  | Cc1ccc(NC(=O)CC(C)C(F)(F)F)cc1N1CCc2nc(Nc3ccc(OCCN4CCN(C)CC4)cc3)ncc2C1 (centres unmarked) [Compound 160, 4,4,4-Trifluoro-3-methyl-N-[4-methyl-3-(2-{4-[2-(4-methyl-piperazin-1-yl)-ethoxy]-phenylamino}-7,8-dihydro-5H-pyrido[4,3-d]pyrimidin-6-yl)-phenyl]-butyramide] | 
12 | 15 nM | 13 nM | 330 nM | 89% | 94% | 87% | 96% |  | CNC(=O)c1ccc(Nc2ncc3c(n2)CCN(c2cc(NC(=O)c4cccc(C(F)(F)F)c4)ccc2Cl)C3)cc1 [Compound 176, N-{4-Chloro-3-[2-(4-methylcarbamoyl-phenylamino)-7,8-dihydro-5H-pyrido[4,3-d]pyrimidin-6-yl]-phenyl}- -5-trifluoromethyl-benzamide] | 
13 | 12 nM | 1 nM | 2600 nM | 89% | 98% | 98% | 100% |  | Cc1ccc(NC(=O)CC2CCCC2)cc1N1CCc2nc(Nc3ccc(OCCN4CCCC4)cc3)ncc2C1 [Compound 108, 2-Cyclopentyl-N-(4-methyl-3-{2-[4-(2-pyrrolidin-1-yl-ethoxy)-phenylamino]-7,8-dihydro-5H-pyrido[4,3-d]pyrimidin-6-yl}-phenyl)-acetamide] | 
14 | 9 nM | 3 nM | 830 nM |  |  |  |  | 190 nM | Cc1ccc(NC(=O)CC(C)C(F)(F)F)cc1N1CCc2nc(Nc3ccc(N4CCN(C)CC4)cc3)ncc2C1 (centres unmarked) [Compound 123, 4,4,4-Trifluoro-3-methyl-N-(4-methyl-3-{2-[4-(4-methyl-piperazin-1-yl)-phenylamino]-7,8-dihydro-5H-pyrido[4,3-d]pyrimidin-6-yl}-phenyl)-butyramide] | 
15 | 8 nM |  | 380 nM |  |  | 95% | 98% | 280 nM | Cc1ccc(NC(=O)c2cccc(C(F)(F)F)c2)cc1N1CCc2nc(Nc3ccc(C(N)=O)nc3)ncc2C1 [Compound 119, 5-{6-[2-Methyl-5-(3-trifluoromethyl-benzoylamino)-phenyl]-5,6,7,8-tetrahydro-pyrido[4,3-d]pyrimidin-2-ylamino)-pyridine-2-carboxylic acid amide] | 
16 | 5.3 nM | 27 nM |  | 95% | 97% | 97% | 98% | 283 nM | Cc1ccc(NC(=O)c2cc(C(F)(F)F)ccn2)cc1N1CCc2nc(Nc3ccc(C(=O)N4CCN(C)CC4)cc3)ncc2C1 [Compound 167, 4-Trifluoromethyl-pyridine-2-carboxylic acid (4-methyl-3-{2-[4-(4-methyl-piperazine-1-carbonyl)-phenylamino]-7,8-dihydro-5H-pyrido[4,3-d]pyrimidin-6-yl}-phenyl)-amide] | 
17 | 5 nM | 6 nM | 370 nM |  |  |  |  | 350 nM | Cc1ccc(NC(=O)c2cc(C(F)(F)F)ccn2)cc1N1CCc2nc(Nc3ccc(N4CCN(C)CC4)cc3)ncc2C1 [Compound 146, 4-Trifluoromethyl-pyridine-2-carboxylic acid (4-methyl-3-{2-[4-(4-methyl-piperazin-1-yl)-phenylamino]-7,8-dihydro-5H-pyrido[4,3-d]pyrimidin-6-yl}-phenyl)-amide] | 
18 | 4 nM |  | 610 nM |  |  | 98% | 99% |  | Cc1ccc(NC(=O)NC2CCCC2)cc1N1CCc2nc(Nc3ccc(OCCN4CCCC4)cc3)ncc2C1 [Compound 153, 1-Cyclopentyl-3-(4-methyl-3-{2-[4-(2-pyrrolidin-1-yl-ethoxy)-phenylamino]-7,8-dihydro-5H-pyrido[4,3-d]pyrimidin-6-yl}-phenyl)-urea] | 
